{"source": "ChEMBL document CHEMBL1201862", "about": "“PubChem BioAssay data set” (2004)", "assay_in_all_cases": "inhibition of tumour cell growth, NCI panel, 48 h", "key": {"[1]": {"tested_on": "BT-549"}, "[2]": {"tested_on": "CAKI-1"}, "[3]": {"tested_on": "CCRF-CEM"}, "[4]": {"tested_on": "DU-145"}, "[5]": {"tested_on": "HL-60"}, "[6]": {"tested_on": "HOP-92"}, "[7]": {"tested_on": "KM12"}, "[8]": {"tested_on": "MOLT-4"}, "[9]": {"tested_on": "NCI-H226"}, "[10]": {"tested_on": "NCI-H522"}, "[11]": {"tested_on": "OVCAR-3"}, "[12]": {"tested_on": "OVCAR-8"}, "[13]": {"tested_on": "SF-539"}, "[14]": {"tested_on": "SK-MEL-5"}, "[15]": {"tested_on": "SNB-19"}, "[16]": {"tested_on": "SNB-75"}, "[17]": {"tested_on": "SR"}, "[18]": {"tested_on": "TK-10"}, "[19]": {"tested_on": "UO-31"}}, "note": "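Tested at 5 concentrations; 48 h exposure; 96-well plates; endpoints linearly interpolated, else capped at highest concentration. GI50 is the concentration that inhibits growth by half.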 Activity calls are given as the source filed them. Rule as the data show it: active = GI50 up to about 1.1 µM and inactive = higher. Peptide text beside a SMILES is read from it. * marks the point of attachment. Cbz = O=C(OCc1ccccc1)*", "data": [{"smiles": "Cc1c(C)c(S(=O)(=O)N(CCCCCN)OCCCN)c(C)c2c1OC(C)(C)CC2", "values": [{"measurement": "GI50", "setting": "[1]", "value": "13.5 µM (inactive)"}, {"measurement": "GI50", "setting": "[2]", "value": "20.5 µM (inactive)"}, {"measurement": "GI50", "setting": "[3]", "value": "2.6 µM (inactive)"}, {"measurement": "GI50", "setting": "[4]", "value": "25.1 µM (inactive)"}, {"measurement": "GI50", "setting": "[5]", "value": "2.19 µM (inactive)"}, {"measurement": "GI50", "setting": "[6]", "value": "18.3 µM (inactive)"}, {"measurement": "GI50", "setting": "[7]", "value": "2.92 µM (inactive)"}, {"measurement": "GI50", "setting": "[8]", "value": "3.76 µM (inactive)"}, {"measurement": "GI50", "setting": "[9]", "value": "8.89 µM (inactive)"}, {"measurement": "GI50", "setting": "[10]", "value": "6.28 µM (inactive)"}, {"measurement": "GI50", "setting": "[11]", "value": "5.9 µM (inactive)"}, {"measurement": "GI50", "setting": "[12]", "value": "15.6 µM (inactive)"}, {"measurement": "GI50", "setting": "[13]", "value": "> 25.3 µM (inactive)"}, {"measurement": "GI50", "setting": "[14]", "value": "14.2 µM (inactive)"}, {"measurement": "GI50", "setting": "[15]", "value": "7.91 µM (inactive)"}, {"measurement": "GI50", "setting": "[16]", "value": "6.4 µM (inactive)"}, {"measurement": "GI50", "setting": "[17]", "value": "1.61 µM (inactive)"}, {"measurement": "GI50", "setting": "[18]", "value": "16.2 µM (inactive)"}, {"measurement": "GI50", "setting": "[19]", "value": "20.1 µM (inactive)"}]}, {"smiles": "CC(=O)NC1C(OCc2ccccc2)OC(CO)C(O)C1OCC(=O)N1CCCC1C(=O)NC(CCC(=O)NCCCCCNc1c2ccccc2nc2cccc([N+](=O)[O-])c12)C(N)=O", "note": "(centres undefined)", "values": [{"measurement": "GI50", "setting": "[1]", "value": "0.0524 µM (active)"}, {"measurement": "GI50", "setting": "[2]", "value": "0.0262 µM (active)"}, {"measurement": "GI50", "setting": "[3]", "value": "0.07 µM (active)"}, {"measurement": "GI50", "setting": "[4]", "value": "0.0192 µM (active)"}, {"measurement": "GI50", "setting": "[5]", "value": "0.0221 µM (active)"}, {"measurement": "GI50", "setting": "[6]", "value": "0.0252 µM (active)"}, {"measurement": "GI50", "setting": "[7]", "value": "0.02 µM (active)"}, {"measurement": "GI50", "setting": "[8]", "value": "0.0561 µM (active)"}, {"measurement": "GI50", "setting": "[9]", "value": "0.114 µM (active)"}, {"measurement": "GI50", "setting": "[10]", "value": "0.0353 µM (active)"}, {"measurement": "GI50", "setting": "[11]", "value": "0.0301 µM (active)"}, {"measurement": "GI50", "setting": "[12]", "value": "0.00497 µM (active)"}, {"measurement": "GI50", "setting": "[13]", "value": "0.0456 µM (active)"}, {"measurement": "GI50", "setting": "[14]", "value": "0.00853 µM (active)"}, {"measurement": "GI50", "setting": "[15]", "value": "0.028 µM (active)"}, {"measurement": "GI50", "setting": "[16]", "value": "0.145 µM (active)"}, {"measurement": "GI50", "setting": "[17]", "value": "0.281 µM (active)"}, {"measurement": "GI50", "setting": "[18]", "value": "0.0508 µM (active)"}, {"measurement": "GI50", "setting": "[19]", "value": "0.0422 µM (active)"}]}, {"smiles": "CCOC(=O)C(C)NC(=O)C(C)NC(=O)C(C)NC(=O)C(C)NC(=O)C(C)NC(=O)C(C)NC(=O)C(C)NC(=O)OCc1ccccc1", "note": "(centres undefined) (Cbz-AAAAAAA-OEt; configuration not given here)", "values": [{"measurement": "GI50", "setting": "[1]", "value": "> 100 µM (inactive)"}, {"measurement": "GI50", "setting": "[2]", "value": "> 100 µM (inactive)"}, {"measurement": "GI50", "setting": "[4]", "value": "> 100 µM (inactive)"}, {"measurement": "GI50", "setting": "[5]", "value": "> 100 µM (inactive)"}, {"measurement": "GI50", "setting": "[6]", "value": "> 100 µM (inactive)"}, {"measurement": "GI50", "setting": "[7]", "value": "> 100 µM (inactive)"}, {"measurement": "GI50", "setting": "[8]", "value": "> 100 µM (inactive)"}, {"measurement": "GI50", "setting": "[9]", "value": "> 100 µM (inactive)"}, {"measurement": "GI50", "setting": "[10]", "value": "> 100 µM (inactive)"}, {"measurement": "GI50", "setting": "[11]", "value": "> 100 µM (inactive)"}, {"measurement": "GI50", "setting": "[12]", "value": "> 100 µM (inactive)"}, {"measurement": "GI50", "setting": "[13]", "value": "> 100 µM (inactive)"}, {"measurement": "GI50", "setting": "[14]", "value": "> 100 µM (inactive)"}, {"measurement": "GI50", "setting": "[15]", "value": "> 100 µM (inactive)"}, {"measurement": "GI50", "setting": "[16]", "value": "> 100 µM (inactive)"}, {"measurement": "GI50", "setting": "[17]", "value": "> 100 µM (inactive)"}, {"measurement": "GI50", "setting": "[18]", "value": "> 100 µM (inactive)"}, {"measurement": "GI50", "setting": "[19]", "value": "> 100 µM (inactive)"}]}, {"smiles": "Cc1ccnc(NS(=O)(=O)c2ccc(N=[N+]=[N-])cc2)n1", "values": [{"measurement": "GI50", "setting": "[1]", "value": "> 100 µM (inactive)"}, {"measurement": "GI50", "setting": "[2]", "value": "> 100 µM (inactive)"}, {"measurement": "GI50", "setting": "[3]", "value": "> 21.4 µM (inactive)"}, {"measurement": "GI50", "setting": "[4]", "value": "> 100 µM (inactive)"}, {"measurement": "GI50", "setting": "[5]", "value": "> 46.9 µM (inactive)"}, {"measurement": "GI50", "setting": "[6]", "value": "> 100 µM (inactive)"}, {"measurement": "GI50", "setting": "[7]", "value": "> 100 µM (inactive)"}, {"measurement": "GI50", "setting": "[9]", "value": "> 100 µM (inactive)"}, {"measurement": "GI50", "setting": "[10]", "value": "> 100 µM (inactive)"}, {"measurement": "GI50", "setting": "[11]", "value": "> 100 µM (inactive)"}, {"measurement": "GI50", "setting": "[12]", "value": "> 100 µM (inactive)"}, {"measurement": "GI50", "setting": "[13]", "value": "> 100 µM (inactive)"}, {"measurement": "GI50", "setting": "[14]", "value": "> 100 µM (inactive)"}, {"measurement": "GI50", "setting": "[15]", "value": "> 100 µM (inactive)"}, {"measurement": "GI50", "setting": "[16]", "value": "> 100 µM (inactive)"}, {"measurement": "GI50", "setting": "[17]", "value": "1.34 µM (inactive)"}, {"measurement": "GI50", "setting": "[18]", "value": "> 100 µM (inactive)"}, {"measurement": "GI50", "setting": "[19]", "value": "> 100 µM (inactive)"}]}, {"smiles": "COc1ccc2nc(-c3ccccc3)c(=O)[nH]c2c1", "values": [{"measurement": "GI50", "setting": "[1]", "value": "> 100 µM (inactive)"}, {"measurement": "GI50", "setting": "[2]", "value": "> 100 µM (inactive)"}, {"measurement": "GI50", "setting": "[3]", "value": "> 100 µM (inactive)"}, {"measurement": "GI50", "setting": "[4]", "value": "> 100 µM (inactive)"}, {"measurement": "GI50", "setting": "[5]", "value": "> 100 µM (inactive)"}, {"measurement": "GI50", "setting": "[6]", "value": "> 100 µM (inactive)"}, {"measurement": "GI50", "setting": "[8]", "value": "> 100 µM (inactive)"}, {"measurement": "GI50", "setting": "[9]", "value": "> 100 µM (inactive)"}, {"measurement": "GI50", "setting": "[10]", "value": "> 100 µM (inactive)"}, {"measurement": "GI50", "setting": "[11]", "value": "> 100 µM (inactive)"}, {"measurement": "GI50", "setting": "[12]", "value": "> 100 µM (inactive)"}, {"measurement": "GI50", "setting": "[13]", "value": "> 100 µM (inactive)"}, {"measurement": "GI50", "setting": "[14]", "value": "> 100 µM (inactive)"}, {"measurement": "GI50", "setting": "[15]", "value": "> 100 µM (inactive)"}, {"measurement": "GI50", "setting": "[16]", "value": "> 100 µM (inactive)"}, {"measurement": "GI50", "setting": "[17]", "value": "> 100 µM (inactive)"}, {"measurement": "GI50", "setting": "[18]", "value": "> 100 µM (inactive)"}]}, {"smiles": "Nc1nc(-c2ccccc2)c(CC(=O)O)s1", "values": [{"measurement": "GI50", "setting": "[1]", "value": "> 100 µM (inactive)"}, {"measurement": "GI50", "setting": "[2]", "value": "> 100 µM (inactive)"}, {"measurement": "GI50", "setting": "[4]", "value": "> 100 µM (inactive)"}, {"measurement": "GI50", "setting": "[5]", "value": "20 µM (inactive)"}, {"measurement": "GI50", "setting": "[6]", "value": "> 100 µM (inactive)"}, {"measurement": "GI50", "setting": "[7]", "value": "> 100 µM (inactive)"}, {"measurement": "GI50", "setting": "[8]", "value": "> 100 µM (inactive)"}, {"measurement": "GI50", "setting": "[9]", "value": "> 100 µM (inactive)"}, {"measurement": "GI50", "setting": "[10]", "value": "> 100 µM (inactive)"}, {"measurement": "GI50", "setting": "[11]", "value": "> 100 µM (inactive)"}, {"measurement": "GI50", "setting": "[12]", "value": "> 100 µM (inactive)"}, {"measurement": "GI50", "setting": "[13]", "value": "> 100 µM (inactive)"}, {"measurement": "GI50", "setting": "[14]", "value": "> 100 µM (inactive)"}, {"measurement": "GI50", "setting": "[15]", "value": "> 100 µM (inactive)"}, {"measurement": "GI50", "setting": "[16]", "value": "> 100 µM (inactive)"}, {"measurement": "GI50", "setting": "[17]", "value": "> 100 µM (inactive)"}, {"measurement": "GI50", "setting": "[18]", "value": "> 100 µM (inactive)"}, {"measurement": "GI50", "setting": "[19]", "value": "> 100 µM (inactive)"}]}]}
